Laboratory results reported in ChEMBL document CHEMBL1201862, “PubChem BioAssay data set” (2004).
Where “and” joins values, the source holds several entries; their conditions need not be identical. Equal entries are not always repeated. Calls of active or inactive are those of the source.

What was measured:
[1] = inhibitors of clade B AD8 Env fusion, dose response, cell-based, cherry-pick (AID 652062); format: functional;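 note: luciferase signal from cell-cell fusion driven by HIV-1 clade B AD8 Env; potency is for inhibitors of fusion seen as a drop in luminescence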
[2] = test system: A-375; assay: A375 melanoma cell viability reduction, dose response, counter-screen for MITF modulator project, cherry-pick samples, set 2 (AID 540335); format: functional, cell-based; details: Homo sapiens
[3] = target: T1, Ubiquitin-conjugating enzyme E2 N (Homo sapiens, UniProt P61088); format: functional;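 note: Dose-response confirmation in a TR-FRET assay detecting UBC13-driven polyubiquitin chain formation, inhibition measured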
T1 sequence (P61088 whole entry): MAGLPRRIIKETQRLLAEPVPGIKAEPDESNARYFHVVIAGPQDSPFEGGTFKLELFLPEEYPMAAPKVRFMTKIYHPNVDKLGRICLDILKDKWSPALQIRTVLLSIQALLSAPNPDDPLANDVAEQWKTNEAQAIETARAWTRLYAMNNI

[4] = inhibitors of intracellular T. cruzi replication, confirmation, NIH3T3 host cells, beta-gal luminescence (AID 2044); format: functional, cell-based;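 note: intracellular parasites grown in NIH/3T3 mouse fibroblasts as host cells; luminescent beta-galactosidase reporter signal from transgenic T. cruzi replicating inside host cells; inhibitors lower the luminescence signal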
[5] = cytotoxicity in MIN6 insulinoma cells, dose response, cytotoxicity control, cell-based, mouse insulinoma (AID 2122); format: functional;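 note: confirmatory high-throughput counterscreen run to flag cytotoxic compounds; mouse MIN-6 beta cells carrying an insulin promoter eGFP reporter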
[6] = insulin promoter down-regulators in MIN6 cells, imaging, high-content screening, mouse beta cells (AID 1628); format: functional
[7] = C. albicans growth with fluconazole, confirmation, fluorescence, retest (AID 2467); format: functional, cell-based
[8] = off-target signal loss in HeLa-CEM21 co-culture – HeLa F-luc CTL cells, cherry-picked, counter-screen for HIV-1 Env fusion inhibitor project, dose response (AID 652040); format: functional, cell-based;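 note: potency for signal decrease marking cytotoxic or nonspecific inhibition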
[9] = target: T2, Apoptotic protease-activating factor 1 (Homo sapiens, UniProt O14727); format: functional
T2 sequence (O14727 whole entry): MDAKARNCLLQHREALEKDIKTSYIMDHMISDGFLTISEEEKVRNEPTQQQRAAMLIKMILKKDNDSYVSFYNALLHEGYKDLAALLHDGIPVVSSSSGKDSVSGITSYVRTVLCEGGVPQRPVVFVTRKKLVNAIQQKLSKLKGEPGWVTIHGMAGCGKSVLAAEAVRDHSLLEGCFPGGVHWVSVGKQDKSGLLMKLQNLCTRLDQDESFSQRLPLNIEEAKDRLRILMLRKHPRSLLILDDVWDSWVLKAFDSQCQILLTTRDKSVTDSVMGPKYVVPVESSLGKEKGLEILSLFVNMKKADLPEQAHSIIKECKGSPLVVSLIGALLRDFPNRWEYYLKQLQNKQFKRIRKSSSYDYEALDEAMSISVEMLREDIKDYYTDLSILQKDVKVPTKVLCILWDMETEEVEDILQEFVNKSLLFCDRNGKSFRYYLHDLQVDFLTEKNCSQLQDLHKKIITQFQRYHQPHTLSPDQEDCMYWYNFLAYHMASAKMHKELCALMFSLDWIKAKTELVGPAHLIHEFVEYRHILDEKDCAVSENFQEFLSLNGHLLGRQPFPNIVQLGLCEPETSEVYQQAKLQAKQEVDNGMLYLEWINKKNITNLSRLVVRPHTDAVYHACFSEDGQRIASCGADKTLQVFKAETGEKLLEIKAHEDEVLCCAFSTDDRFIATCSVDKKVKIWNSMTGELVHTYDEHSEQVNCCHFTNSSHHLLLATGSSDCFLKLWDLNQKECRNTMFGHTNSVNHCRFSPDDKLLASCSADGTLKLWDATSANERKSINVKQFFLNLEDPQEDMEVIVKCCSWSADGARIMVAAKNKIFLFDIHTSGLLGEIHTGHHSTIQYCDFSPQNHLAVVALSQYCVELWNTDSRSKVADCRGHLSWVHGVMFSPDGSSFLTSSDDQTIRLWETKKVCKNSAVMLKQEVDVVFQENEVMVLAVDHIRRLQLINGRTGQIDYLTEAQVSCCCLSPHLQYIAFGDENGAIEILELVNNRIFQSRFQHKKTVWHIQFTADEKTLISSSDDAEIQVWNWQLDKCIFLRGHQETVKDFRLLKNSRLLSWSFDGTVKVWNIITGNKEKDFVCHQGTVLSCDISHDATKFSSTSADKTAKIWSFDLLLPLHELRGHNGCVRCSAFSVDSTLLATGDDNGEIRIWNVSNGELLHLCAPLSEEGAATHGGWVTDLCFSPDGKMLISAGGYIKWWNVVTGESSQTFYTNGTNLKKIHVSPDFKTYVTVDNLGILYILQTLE

[10] = ZM109 Env clade C HIV-1 fusion inhibitors, dose response, HeLa effector, CEM target cells, luciferase, cherry-pick (AID 652058); format: functional, cell-based
[11] = target: T3, Microphthalmia-associated transcription factor (Homo sapiens, UniProt O75030); assay: TRPM1 promoter luciferase signal decrease, dose response, MITF inhibitor project, cell-based, SK-MEL-5, cherry-picked, set 3 (AID 493073); format: functional
T3 sequence (O75030 whole entry): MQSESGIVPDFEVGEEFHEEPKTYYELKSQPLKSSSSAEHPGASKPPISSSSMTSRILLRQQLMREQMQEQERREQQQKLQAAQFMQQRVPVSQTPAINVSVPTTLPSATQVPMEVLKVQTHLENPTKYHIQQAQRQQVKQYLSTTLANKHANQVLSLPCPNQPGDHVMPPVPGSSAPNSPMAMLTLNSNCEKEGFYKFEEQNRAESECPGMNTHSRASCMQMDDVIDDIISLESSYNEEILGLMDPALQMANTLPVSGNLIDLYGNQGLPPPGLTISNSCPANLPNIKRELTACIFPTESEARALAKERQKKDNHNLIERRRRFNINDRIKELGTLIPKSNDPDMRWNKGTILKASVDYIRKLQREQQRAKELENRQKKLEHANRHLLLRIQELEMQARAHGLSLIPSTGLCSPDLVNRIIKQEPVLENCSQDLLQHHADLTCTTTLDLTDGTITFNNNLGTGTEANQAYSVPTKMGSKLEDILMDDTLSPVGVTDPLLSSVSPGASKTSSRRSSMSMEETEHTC

[12] = NIH-3T3 fibroblast cytotoxicity, dose response, cytotoxicity control, cell-based, fluorescence, Alamar Blue, secondary assay (AID 2327); format: functional;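 note: NIH-3T3 mouse fibroblasts cultured with fluconazole at 8 µg/mL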
[13] = inhibitors of HIV Env-driven cell fusion, dose response, cherry-pick (AID 652057); format: functional, cell-based
[14] = target: T4, X-box-binding protein 1 (Homo sapiens, UniProt P17861); format: functional, Cricetulus griseus;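 note: confirmatory dose-response counter-screen serving a CHOP assay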
T4 sequence (P17861 whole entry): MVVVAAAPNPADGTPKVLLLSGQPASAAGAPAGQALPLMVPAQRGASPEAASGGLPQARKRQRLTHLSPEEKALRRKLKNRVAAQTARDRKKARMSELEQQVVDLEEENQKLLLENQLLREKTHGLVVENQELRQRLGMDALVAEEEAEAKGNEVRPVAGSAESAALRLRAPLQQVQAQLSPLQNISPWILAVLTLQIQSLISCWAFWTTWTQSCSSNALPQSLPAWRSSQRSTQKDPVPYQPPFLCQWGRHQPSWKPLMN

[15] = target: G-protein coupled receptor 55 (Homo sapiens, UniProt Q9Y2T6); assay: GPR55 agonists via beta-arrestin recruitment, primary screen, imaging, U2OS cells, beta-arrestin-GFP redistribution (AID 1961); format: functional
[16] = test system: INS1; assay: beta cell apoptosis inhibitors, cytokine rescue, dose response, luminescence, retest (AID 449756); format: functional, cell-based; details: Rattus norvegicus;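 note: cell death triggered by IL-1 beta plus TNF-alpha plus IFN-gamma mixture; protective hits raise ATP signal compared with cytokine alone wells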
[17] = CEM21 lymphoblast cell cytotoxicity, dose response, cytotoxicity control for viral fusion inhibitor project, CellTiter-Glo luminescence, cherry-picked (AID 652042); format: functional, cell-based;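 note: potency for signal decrease meaning cytotoxicity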
[18] = target: T5, Fatty acid synthase (Homo sapiens, UniProt P49327); assay: FAS thioesterase domain inhibitors, dose response, biochemical, kinetic fluorescence intensity (AID 624326); format: functional;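 note: rate of fluorescence rise from hydrolysis of a fluorogenic O-methyl fluorescein ester substrate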
[19] = target: Beta Lactamase (Pseudomonas aeruginosa, UniProt Q932Y6); assay: beta-lactamase reporter inhibitor potency, dose response, artefact control for TLR9-MyD88 binding inhibitor project, BLA reporter cells, FRET fluorescence (AID 588341); format: cell-based;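 note: cell based assay in CHO-K1 cells stably expressing beta-lactamase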
[20] = control 3'UTR Renilla luciferase suppression, dose response, counter-screen for Shn3 inhibitor project, cell-based, Clone20-Shn3RL, cherry-picked (AID 624133); format: functional
[21] = target: T6, Replicative DNA helicase DnaB (Mycobacterium tuberculosis, UniProt P9WMR3); assay: DnaB intein splicing inhibitors, dose response, biochemical, cell-free fluorescence (AID 449749); format: functional
T6 sequence (P9WMR3 whole entry): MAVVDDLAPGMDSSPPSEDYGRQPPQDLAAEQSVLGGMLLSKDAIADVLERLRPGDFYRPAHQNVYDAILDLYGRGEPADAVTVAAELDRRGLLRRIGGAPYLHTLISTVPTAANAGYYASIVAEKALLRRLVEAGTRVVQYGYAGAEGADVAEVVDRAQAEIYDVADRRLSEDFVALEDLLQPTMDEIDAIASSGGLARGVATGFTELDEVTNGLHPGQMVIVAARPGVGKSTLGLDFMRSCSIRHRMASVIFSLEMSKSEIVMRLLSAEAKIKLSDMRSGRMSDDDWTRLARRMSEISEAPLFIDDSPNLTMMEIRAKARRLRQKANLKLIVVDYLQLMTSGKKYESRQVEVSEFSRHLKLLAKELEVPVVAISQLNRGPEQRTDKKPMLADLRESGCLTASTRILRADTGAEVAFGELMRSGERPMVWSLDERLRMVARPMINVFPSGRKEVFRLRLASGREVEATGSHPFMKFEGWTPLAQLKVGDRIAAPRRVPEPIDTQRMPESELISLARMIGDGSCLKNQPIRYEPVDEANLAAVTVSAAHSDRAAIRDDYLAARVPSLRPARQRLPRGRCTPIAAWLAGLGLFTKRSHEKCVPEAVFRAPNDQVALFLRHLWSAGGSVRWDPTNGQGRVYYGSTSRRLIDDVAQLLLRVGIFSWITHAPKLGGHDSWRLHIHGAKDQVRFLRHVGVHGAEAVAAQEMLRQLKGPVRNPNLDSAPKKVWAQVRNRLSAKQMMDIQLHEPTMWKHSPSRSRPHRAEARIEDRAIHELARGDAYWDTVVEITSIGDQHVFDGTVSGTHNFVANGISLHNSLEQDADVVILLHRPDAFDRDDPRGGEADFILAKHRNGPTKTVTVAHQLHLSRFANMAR

[22] = target: T7, Protein RecA (Mycobacterium tuberculosis, UniProt P9WHJ3); assay: Fluorescence Cell-Free Homogeneous Dose Retest to Identify Inhibitors of RecA-Intein Splicing Activity. [Related pubchem assays (depositor defined):AID2097, AID2223, AID489010, AID492950]; format: functional
T7 sequence (P9WHJ3 whole entry): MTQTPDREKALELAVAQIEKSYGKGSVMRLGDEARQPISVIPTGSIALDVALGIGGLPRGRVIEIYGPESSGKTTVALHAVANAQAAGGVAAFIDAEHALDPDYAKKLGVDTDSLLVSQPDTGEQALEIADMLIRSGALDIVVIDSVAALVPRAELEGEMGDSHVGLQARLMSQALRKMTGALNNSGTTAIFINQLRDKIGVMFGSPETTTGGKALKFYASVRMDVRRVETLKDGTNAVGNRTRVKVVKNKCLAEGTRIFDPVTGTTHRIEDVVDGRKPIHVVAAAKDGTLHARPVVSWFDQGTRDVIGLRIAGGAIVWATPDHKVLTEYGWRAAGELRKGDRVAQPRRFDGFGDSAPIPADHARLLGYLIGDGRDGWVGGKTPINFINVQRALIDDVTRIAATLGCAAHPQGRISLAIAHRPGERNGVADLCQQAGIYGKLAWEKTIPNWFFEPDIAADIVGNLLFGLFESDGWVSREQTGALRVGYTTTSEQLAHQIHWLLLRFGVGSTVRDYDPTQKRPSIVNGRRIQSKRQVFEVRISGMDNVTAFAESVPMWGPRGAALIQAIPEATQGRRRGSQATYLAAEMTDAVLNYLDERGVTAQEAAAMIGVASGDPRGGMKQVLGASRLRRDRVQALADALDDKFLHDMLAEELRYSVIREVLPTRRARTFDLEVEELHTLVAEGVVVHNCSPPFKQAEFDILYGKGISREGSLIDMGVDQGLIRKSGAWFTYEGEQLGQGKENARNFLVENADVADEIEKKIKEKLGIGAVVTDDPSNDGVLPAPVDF

[23] = Shn3 3'UTR reporter inhibitors, dose response, cell-based, Clone20 osteoblasts, firefly luciferase, cherry-picked (AID 624132); format: functional;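 note: firefly luciferase luminescence from reporter carrying the Shn3 3'UTR in osteoblasts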
[24] = HepG2 cell cytotoxicity, dose response, cytotoxicity control for Shn3 inhibitor project, CellTiter-Glo, cherry-picked (AID 624134); format: functional, cell-based
[25] = test system: CHO; assay: cytotoxicity in TLR9-MyD88 CHO cells, dose response, cytotoxicity control for TLR9-MyD88 binding inhibitor project, cell-based, luminescence (AID 588339); format: functional, hamster; details: Cricetulus griseus;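 note: CHO cells stably coexpressing TLR9 and MyD88 fusions from primary screen; compound exposure lasted 48 hours before viability readout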
[26] = target: T5, Fatty acid synthase; assay: FAS thioesterase domain inhibitors, dose response, biochemical, endpoint fluorescence intensity, uHTS hits (AID 624327); format: functional;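 note: fluorescence from hydrolysis of an O-methyl fluorescein acyl ester substrate by the enzyme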
[27] = target: T8, Endoribonuclease toxin MazF (Escherichia coli K-12, UniProt P0AE70); assay: MazF toxin RNase activators, dose response, biochemical, fluorescence, single-stranded RNA substrate, uHTS hits (AID 588481); format: functional
[28] = target: T8, Endoribonuclease toxin MazF; assay: fluorescent RNA oligo signal without MazF, dose response, counter-screen for MazEF activator project, biochemical, fluorescence, single-stranded RNase substrate (AID 588502); format: functional

T5 sequence (P49327 whole entry, the tested form may be a part): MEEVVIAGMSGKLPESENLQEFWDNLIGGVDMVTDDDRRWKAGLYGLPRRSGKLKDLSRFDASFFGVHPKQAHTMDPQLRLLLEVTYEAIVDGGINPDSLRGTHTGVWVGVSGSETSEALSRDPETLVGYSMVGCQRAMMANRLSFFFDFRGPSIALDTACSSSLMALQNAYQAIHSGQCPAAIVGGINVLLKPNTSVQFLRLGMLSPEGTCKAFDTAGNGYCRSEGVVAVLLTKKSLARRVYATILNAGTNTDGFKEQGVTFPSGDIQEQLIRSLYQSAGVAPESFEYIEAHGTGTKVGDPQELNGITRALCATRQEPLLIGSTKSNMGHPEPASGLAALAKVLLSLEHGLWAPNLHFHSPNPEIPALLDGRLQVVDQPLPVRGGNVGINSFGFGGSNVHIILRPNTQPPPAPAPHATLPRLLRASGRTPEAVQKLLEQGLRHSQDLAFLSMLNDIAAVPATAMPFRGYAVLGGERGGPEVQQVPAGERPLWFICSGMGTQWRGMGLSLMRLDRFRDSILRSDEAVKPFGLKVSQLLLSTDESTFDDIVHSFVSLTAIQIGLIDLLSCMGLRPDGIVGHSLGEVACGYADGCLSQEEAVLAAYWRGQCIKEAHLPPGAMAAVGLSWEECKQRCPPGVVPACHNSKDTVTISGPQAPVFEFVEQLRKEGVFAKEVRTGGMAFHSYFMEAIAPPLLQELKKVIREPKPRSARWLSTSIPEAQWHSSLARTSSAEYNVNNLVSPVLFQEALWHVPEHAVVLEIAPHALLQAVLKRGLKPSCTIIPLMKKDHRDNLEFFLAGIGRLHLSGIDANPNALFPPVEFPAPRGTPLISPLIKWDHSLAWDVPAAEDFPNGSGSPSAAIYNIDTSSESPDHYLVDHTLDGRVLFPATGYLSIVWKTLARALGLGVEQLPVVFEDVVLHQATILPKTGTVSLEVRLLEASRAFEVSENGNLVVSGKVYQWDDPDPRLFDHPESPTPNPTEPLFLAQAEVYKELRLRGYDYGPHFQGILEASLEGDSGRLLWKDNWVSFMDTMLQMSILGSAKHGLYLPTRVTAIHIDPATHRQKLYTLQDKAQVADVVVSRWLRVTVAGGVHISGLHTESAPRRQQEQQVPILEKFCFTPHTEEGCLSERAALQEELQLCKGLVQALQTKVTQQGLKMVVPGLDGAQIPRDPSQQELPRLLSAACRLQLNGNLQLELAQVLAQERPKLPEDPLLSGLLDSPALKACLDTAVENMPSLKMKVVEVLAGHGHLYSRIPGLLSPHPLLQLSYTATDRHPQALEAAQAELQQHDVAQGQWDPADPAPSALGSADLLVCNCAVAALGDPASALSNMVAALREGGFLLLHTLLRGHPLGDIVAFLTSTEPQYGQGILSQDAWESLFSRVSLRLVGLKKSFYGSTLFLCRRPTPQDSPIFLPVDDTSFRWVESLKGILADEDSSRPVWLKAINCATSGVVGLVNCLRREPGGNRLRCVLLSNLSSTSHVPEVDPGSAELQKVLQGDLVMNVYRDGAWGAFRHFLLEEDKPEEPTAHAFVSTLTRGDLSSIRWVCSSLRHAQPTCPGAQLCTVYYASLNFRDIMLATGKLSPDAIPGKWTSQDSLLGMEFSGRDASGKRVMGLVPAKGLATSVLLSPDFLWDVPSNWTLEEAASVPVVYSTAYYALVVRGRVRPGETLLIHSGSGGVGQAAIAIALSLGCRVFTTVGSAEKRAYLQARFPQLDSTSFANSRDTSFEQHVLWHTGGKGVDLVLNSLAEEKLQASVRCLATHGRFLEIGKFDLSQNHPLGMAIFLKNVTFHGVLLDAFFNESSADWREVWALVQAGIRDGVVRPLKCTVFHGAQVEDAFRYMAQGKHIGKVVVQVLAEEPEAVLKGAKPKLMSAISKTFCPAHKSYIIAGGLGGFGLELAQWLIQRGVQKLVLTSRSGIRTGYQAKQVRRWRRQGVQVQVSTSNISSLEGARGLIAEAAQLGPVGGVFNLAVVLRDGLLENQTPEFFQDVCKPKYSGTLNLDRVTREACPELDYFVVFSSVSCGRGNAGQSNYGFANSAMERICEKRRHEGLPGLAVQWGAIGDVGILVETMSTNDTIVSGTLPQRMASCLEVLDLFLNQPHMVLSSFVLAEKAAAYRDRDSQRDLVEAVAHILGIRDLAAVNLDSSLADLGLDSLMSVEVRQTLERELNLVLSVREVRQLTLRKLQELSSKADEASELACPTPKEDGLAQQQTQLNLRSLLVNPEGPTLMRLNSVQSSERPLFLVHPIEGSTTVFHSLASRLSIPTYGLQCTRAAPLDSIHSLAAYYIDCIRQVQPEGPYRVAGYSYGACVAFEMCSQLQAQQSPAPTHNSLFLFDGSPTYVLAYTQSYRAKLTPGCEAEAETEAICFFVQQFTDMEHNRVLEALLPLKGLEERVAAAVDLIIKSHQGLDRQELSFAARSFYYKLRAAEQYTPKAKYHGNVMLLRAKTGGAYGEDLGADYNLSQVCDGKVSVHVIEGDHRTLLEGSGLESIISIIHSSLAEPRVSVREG
T8 sequence (P0AE70 whole entry): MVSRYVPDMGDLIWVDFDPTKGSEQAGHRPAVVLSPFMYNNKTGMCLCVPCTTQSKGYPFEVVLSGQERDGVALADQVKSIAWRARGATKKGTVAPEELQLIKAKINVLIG
Sequence of Beta Lactamase (Q932Y6 whole entry): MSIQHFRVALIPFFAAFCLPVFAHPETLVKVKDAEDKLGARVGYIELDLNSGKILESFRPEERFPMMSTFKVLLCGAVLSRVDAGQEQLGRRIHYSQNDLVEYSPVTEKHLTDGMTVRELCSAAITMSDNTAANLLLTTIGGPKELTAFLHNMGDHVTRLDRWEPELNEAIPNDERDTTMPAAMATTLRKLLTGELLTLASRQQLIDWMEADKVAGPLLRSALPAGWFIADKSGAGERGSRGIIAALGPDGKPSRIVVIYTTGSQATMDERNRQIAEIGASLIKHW
Sequence of G-protein coupled receptor 55 (Q9Y2T6 whole entry): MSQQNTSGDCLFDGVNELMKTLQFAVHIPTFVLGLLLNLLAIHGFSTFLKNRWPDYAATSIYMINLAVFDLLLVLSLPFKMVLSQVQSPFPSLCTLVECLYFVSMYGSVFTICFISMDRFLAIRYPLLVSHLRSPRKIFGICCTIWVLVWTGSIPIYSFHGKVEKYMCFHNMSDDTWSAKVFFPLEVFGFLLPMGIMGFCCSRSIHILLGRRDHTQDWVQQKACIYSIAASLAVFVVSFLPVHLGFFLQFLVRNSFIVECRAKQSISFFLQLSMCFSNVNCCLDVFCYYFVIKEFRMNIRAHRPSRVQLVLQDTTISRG

Cc1ccccc1OCc1n(CC(=O)OC2CC(C)CCC2C(C)C)c2ccccc2[n+]1C.[Cl-] (stereo not drawn)
inactive: IC50 [3] > 20 µM | EC50 [12] > 160 µM | EC50 [15] > 32 µM
10 µM: Absolute IC50 (XBP1) [14]
active: AC50 [1] 7 µM | AC50 [2] 19 µM | EC50 [4] 684 nM and 429 nM | IC50 [5] 1.95 µM | IC50 [6] 1.52 µM | EC50 [7] 0.693 µM | AC50 [8] 9.17 µM | IC50 [9] 29.5 µM | AC50 [10] 8.94 µM | AC50 [11] 7.51 µM | AC50 [13] 6.17 µM | AC50 [16] 3.39 µM | AC50 [17] 4.93 µM

CCCC(=O)OCCNc1cc(Sc2nc3ccccc3[nH]2)c2nonc2c1[N+](=O)[O-]
inactive: IC50 [19] 10.9 µM
active: IC50 [18] 1.34 µM | AC50 [20] 8.96 µM | AC50 [21] 0.855 µM | EC50 [22] 0.657 µM | AC50 [23] 6.63 µM | AC50 [24] 24.2 µM | IC50 [25] 4.59 µM | IC50 [26] 2.2 µM

Cc1cc(C)c(NC(=O)Cn2nnc(C(=O)NCc3ccc4c(c3)OCO4)c2N)c(C)c1
inactive: EC50 [27] > 99 µM | EC50 [28] > 99 µM
